These results are taken from ChEMBL document CHEMBL4334540, “Epimers Switch Galectin-9 Domain Selectivity: 3N-Aryl Galactosides Bind the C-Terminal and Gulosides Bind the N-Terminal” (ACS Med Chem Lett, 2020).

One test deals with Galectin-3 (Homo sapiens, UniProt P17931). The test can be described thus: Binding affinity at recombinant human Galectin 3 expressed in Escherichia coli BL21 incubated for 5 mins by fluorescence anisotropy assay. In general terms: Polarisation of emitted light reports the rotation of a fluorescent probe.
Galectin-3, sequence (P17931 whole entry): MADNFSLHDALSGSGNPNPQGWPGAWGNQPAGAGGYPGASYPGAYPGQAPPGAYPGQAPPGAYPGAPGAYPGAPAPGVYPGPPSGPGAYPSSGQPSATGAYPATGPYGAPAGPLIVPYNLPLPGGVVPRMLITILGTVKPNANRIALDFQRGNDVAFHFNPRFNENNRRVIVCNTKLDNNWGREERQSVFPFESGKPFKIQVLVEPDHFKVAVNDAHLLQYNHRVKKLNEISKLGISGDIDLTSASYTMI
In test [1] the target is T1, Galectin-8 (Homo sapiens, UniProt O00214).
T1 sequence (O00214 whole entry): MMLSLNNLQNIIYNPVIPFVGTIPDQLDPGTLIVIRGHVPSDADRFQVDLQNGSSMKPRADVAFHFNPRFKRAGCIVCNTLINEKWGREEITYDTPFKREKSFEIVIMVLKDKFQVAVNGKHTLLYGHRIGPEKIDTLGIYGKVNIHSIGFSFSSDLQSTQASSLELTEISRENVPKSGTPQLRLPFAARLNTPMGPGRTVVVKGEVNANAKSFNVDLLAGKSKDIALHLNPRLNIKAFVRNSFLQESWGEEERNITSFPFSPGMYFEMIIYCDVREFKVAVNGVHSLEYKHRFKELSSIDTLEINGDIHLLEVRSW
Put plainly: Binding affinity at recombinant human N-terminal Galectin 8 expressed in Escherichia coli BL21 incubated for 5 mins by fluorescence anisotropy assay.

In test [2] the target is T1, Galectin-8. Put plainly: Binding affinity at recombinant human C-terminal Galectin 8 expressed in Escherichia coli BL21 incubated for 5 mins by fluorescence anisotropy assay.
In test [3] the target is T2, Galectin-9 (Homo sapiens, UniProt O00182). The test can be described thus: Binding affinity at recombinant human N-terminal Galectin 9 expressed in Escherichia coli BL21 incubated for 5 mins by fluorescence anisotropy assay.
T2 sequence (O00182 whole entry): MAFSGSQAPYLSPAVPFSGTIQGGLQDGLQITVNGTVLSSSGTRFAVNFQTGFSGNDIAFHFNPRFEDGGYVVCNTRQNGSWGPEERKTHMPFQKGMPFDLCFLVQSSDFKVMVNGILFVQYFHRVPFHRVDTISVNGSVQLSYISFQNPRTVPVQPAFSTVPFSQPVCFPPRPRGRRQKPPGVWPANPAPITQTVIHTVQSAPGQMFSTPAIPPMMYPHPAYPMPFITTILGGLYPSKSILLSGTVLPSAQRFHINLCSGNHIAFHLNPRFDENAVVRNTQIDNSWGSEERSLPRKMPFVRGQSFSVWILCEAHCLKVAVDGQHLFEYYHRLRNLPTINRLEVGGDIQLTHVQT
The next test addresses Galectin-7 (Homo sapiens, UniProt P47929). The test can be described thus: Binding affinity at recombinant human Galectin 7 expressed in Escherichia coli BL21 incubated for 5 mins by fluorescence anisotropy assay.
Test [4] addresses T2, Galectin-9. The test can be described thus: Binding affinity at recombinant human C-terminal Galectin 9 expressed in Escherichia coli BL21 incubated for 5 mins by fluorescence anisotropy assay.
For the next test, the target named is Galectin-1 (Homo sapiens, UniProt P09382). The test can be described thus: Binding affinity at recombinant human Galectin 1 expressed in Escherichia coli BL21 incubated for 5 mins by fluorescence anisotropy assay.
Galectin-1, sequence (P09382 whole entry): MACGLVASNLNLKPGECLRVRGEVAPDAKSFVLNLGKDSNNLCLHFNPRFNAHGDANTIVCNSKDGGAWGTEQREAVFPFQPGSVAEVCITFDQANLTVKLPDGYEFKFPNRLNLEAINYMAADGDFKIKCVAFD

Galectin-7, sequence (P47929 whole entry): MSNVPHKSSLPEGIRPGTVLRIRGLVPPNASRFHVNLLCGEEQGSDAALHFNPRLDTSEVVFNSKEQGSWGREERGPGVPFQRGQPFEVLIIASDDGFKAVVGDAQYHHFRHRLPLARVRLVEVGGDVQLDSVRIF

With `CO[C@@H]1O[C@H](CO)[C@H](O)[C@H](Nc2ccc(C)c(C)c2)[C@H]1O`, the Kd – broadly, the constant that tells how readily two partners part at equilibrium – on Galectin-3 was “Not Active”; on Galectin-8 [1], “Not Active”; on Galectin-8 [2], “Not Active”; at Galectin-9 [3] (read-out: Kd) it was 1100 µM; at Galectin-7, “Not Active”; on Galectin-9 [4] (read-out: Kd), 130 µM. For the same compound, the Kd at Galectin-1 (read-out: Kd) was 750 µM.
For `COc1ccc(N[C@@H]2[C@@H](O)[C@@H](Sc3ccc(Cl)c(Cl)c3)O[C@H](CO)[C@@H]2O)cc1`, the Kd at Galectin-3 (read-out: Kd) is 79 µM; at Galectin-8 [1] it was “Not Active”; at Galectin-8 [2] (read-out: Kd) it was 240 µM; at Galectin-9 [3] (read-out: Kd), 6.1 µM; at Galectin-7 (read-out: Kd) it was 13 µM; at Galectin-9 [4] (read-out: Kd) it was 2.8 µM. Further, the Kd at Galectin-1 (read-out: Kd) came to 120 µM.
Regarding `CO[C@@H]1O[C@H](CO)[C@H](O)[C@@H](Nc2cccc(C)c2)[C@H]1O`, the Kd result at Galectin-3 is “Not Active”; on Galectin-8 [1], “Not Active”; on Galectin-8 [2], “Not Active”; at Galectin-9 [3] (read-out: Kd), 980 µM; at Galectin-7 it was “Not Active”; at Galectin-9 [4] it was “Not Active”. Moreover, on Galectin-1, the Kd result is given as “Not Active”.
As to `CO[C@@H]1O[C@H](CO)[C@H](O)[C@@H](O)[C@H]1O`, the Kd entry on Galectin-3, at Galectin-8 [1], at Galectin-8 [2], at Galectin-9 [3] and on Galectin-9 [4] was “Not Active” throughout.
For the compound `COc1ccc(N[C@H]2[C@@H](O)[C@@H](Sc3ccc(Cl)c(Cl)c3)O[C@H](CO)[C@@H]2O)cc1`, the Kd result at Galectin-3 was “Not Active”; at Galectin-9 [3] (read-out: Kd), 260 µM; at Galectin-9 [4], “Not Active”; on Galectin-1, “Not Active”.
Regarding `COc1cccc(N[C@H]2[C@@H](O)[C@@H](Sc3ccc(Cl)c(Cl)c3)O[C@H](CO)[C@@H]2O)c1`, the Kd result at Galectin-3 was “Not Active”; at Galectin-8 [1], “Not Active”; on Galectin-8 [2], “Not Active”; on Galectin-9 [3] (read-out: Kd), 40 µM; at Galectin-7, “Not Active”; on Galectin-9 [4] (read-out: Kd), 210 µM. In addition, on Galectin-1, the Kd result is on record as “Not Active”.
For `Cc1ccc(N[C@@H]2[C@@H](O)[C@@H](Sc3ccc(Cl)c(Cl)c3)O[C@H](CO)[C@@H]2O)cc1C`, the Kd at Galectin-3 (read-out: Kd) came out at 170 µM; on Galectin-8 [1] (read-out: Kd) it was 490 µM; at Galectin-8 [2] (read-out: Kd), 140 µM; at Galectin-9 [3] (read-out: Kd) it was 12 µM; on Galectin-7 (read-out: Kd), 94 µM; at Galectin-9 [4] (read-out: Kd), 5.8 µM. The Kd on Galectin-1 (read-out: Kd) stood at 44 µM.
`COc1cccc(N[C@@H]2[C@@H](O)[C@@H](Sc3ccc(Cl)c(Cl)c3)O[C@H](CO)[C@@H]2O)c1`: the Kd at Galectin-3 (read-out: Kd) was 79 µM; at Galectin-8 [1] (read-out: Kd), 330 µM; at Galectin-8 [2] (read-out: Kd), 98 µM; at Galectin-9 [3] (read-out: Kd) it was 14 µM; on Galectin-7 (read-out: Kd) it was 36 µM; at Galectin-9 [4] (read-out: Kd), 15 µM. The Kd at Galectin-1 (read-out: Kd) turned out to be 41 µM.
On to `CO[C@@H]1O[C@H](CO)[C@H](O)[C@@H](Nc2ccc(C)c(C)c2)[C@H]1O`, for which the Kd entry on Galectin-3 was “Not Active”; at Galectin-8 [1] it was “Not Active”; at Galectin-8 [2], “Not Active”; at Galectin-9 [3] (read-out: Kd), 470 µM; on Galectin-7 it was “Not Active”; at Galectin-9 [4] it was “Not Active”. Also, on Galectin-1, the Kd result is listed as “Not Active”.
Regarding `CO[C@@H]1O[C@H](CO)[C@H](O)[C@H](O)[C@H]1O`, the Kd on Galectin-9 [4] (read-out: Kd) worked out at 8600 µM.
